Source: patent publication US11993571B2, “Indole derivatives as efflux pump inhibitors” (RUTGERS, THE STATE UNIVERSITY OF NEW JERSEY, priority 2017, dated 2024)
Counter-ions that a name gives are not always drawn.

Tests used:
[1] = system: Pseudomonas aeruginosa ATCC 27853; assay: Standard EPI assay (MIC of levofloxacin or cefepime in absence and presence of the EPI); type: cell-based; conditions: P. aeruginosa ATCC 27853
Experimental: (§1) MIC assays were conducted in accordance with Clinical and Laboratory Standards Institute (CLSI) guidelines for broth microdilution.
(§2) The EPI assay for the purposes of these studies represents a MIC assay in which the MIC of the antibiotic against the bacteria is tested in the presence of an experimental efflux pump inhibitor (EPI). […] Using serial dilutions of the EPI, its enhancement of antibiotic activity was then evaluated. […] For the evaluation of the efficacy of an EPI against bacteria that were pre-exposed to an antibiotic, the inoculum of bacteria that used was developed from a bacterial culture isolated as a single colony following exposure at ½ the MIIC of the antibiotic (so as to induce efflux pump expression), was to be used in combination with the EPI.
In our standard EPI assay, the MIC of the test antibiotic is determined in the absence and presence of sub-inhibitory concentrations of the EPI. Initially, the sub-inhibitory concentration used was ½×MIC of the EPI. […] Similar methodology was employed to examine the synergy with Escherichia coli ATCC 25922 in the presence of varied concentrations of these EPIs using clarithromycin as the antibiotic.

P. aeruginosa ATCC 27853 = assay: Intrinsic MIC assay (CLSI broth microdilution); type: cell-based; conditions: Pseudomonas aeruginosa, ATCC27853
Experimental: as §1
The intrinsic MIC of the experimental EPIs was tested with the method described. The 2-fold serial dilution begins with 100 μg/mL of tested compound in the first column of the 96-well plates. The following Gram-negative bacterial strains were included in these assays: […]

[2] = system: P. aeruginosa [ATCC 27853]; assay: Mouse septicemia model of infection; type: in vivo, Swiss Webster female mice; conditions: experiment #512, cefepime, 10 mg/ml b.i.d., 250 ul
Experimental: A general method for the in vivo assessment of bacterial EPIs is complicated by the fact that that both the antibiotic and the EPI need to be present for synergy to be achieved. A general method was discovered that has proven to be effective in establishing the relative efficacy of bacterial EPIs in a mouse septicemia model. The bacterial EPI is administered initially intravenously to mice with septicemia, followed 5 minutes later by the intravenous administration or oral administration of the antibiotic. A second administration of the EPI is then administered subcutaneously after an additional 5 minutes to act as a booster, followed by the final administration of the antibiotic either intravenously or orally after the second administration of the EPI. […] In a few instances, a second regiment of both EPI and antibiotic as administered on day 1 was required after 24 hours to affect cures.
Determination of the in vivo efficacy of bacterial efflux pump inhibitors (EPIs) can be efficiently determined using a mouse septicemia model of infection. The systemic infection is initiated by a 500 ul intraperitoneal injection of an inoculum containing bacteria (such as P. aeruginosa [ATCC 27853]) at a concentration of approximately 5×10^5 cells in 5% mucin in Swiss Webster female mice. […]

[3] = system: P. aeruginosa ATCC 27853 pre-exposed to cefepime; assay: Pre-exposure bacterial EPI assay; type: cell-based, Pseudomonas aeruginosa
Experimental: as §2
The principle underlying this pre-exposure is that exposure of the bacteria to sub-inhibitory concentrations of the test antibiotic will induce expression of efflux pumps, if any, and may represent the scenario in vivo more accurately.

`C[C@H]1COc2c(N3CCN(C)CC3)c(F)cc3c(=O)c(C(=O)O)cn1c23` [levofloxacin, reference compound] gave an MIC ([1]; Pseudomonas aeruginosa, ATCC27853) of 1 µg/mL.
In the case of `CC(C)C(N)CC[C@H](N)CNC(=O)c1cc2ccc(-c3ccc(F)cc3)cc2[nH]1` (stereo partly drawn) [Example 6, N-((2S)-2,5-diamino-6-methylheptyl)-6-(4-fluorophenyl)-1H-indole-2-carboxamide dihydrochloride], the “MIC of levofloxacin in the presence of EPI” value ([1]; 6.25 μg/mL of the EPI) is reported as 0.063 µg/mL, the “reduction of the MIC of levofloxacin relative to the absence of EPI” value ([1]; 6.25 μg/mL of the EPI) is reported as 32 fold and the “MIC of cefepime in the presence of EPI” value ([1]; 12.5 μg/mL of the EPI) is reported as 1.0 µg/mL. For the same molecule, the “decrease of the MIC of cefepime” value ([1]; 12.5 μg/mL of the EPI) was 2 fold, the MIC (P. aeruginosa ATCC 27853) was 25 µg/mL and the “% Survival (72 hr) Antibiotic + EPI” value ([2]; Example 6, 3.0 mg/ml b.i.d.) was 100%.
In the case of `NCCC[C@@H](N)CNC(=O)c1cc2ccc(-c3ccc(F)cc3)cc2[nH]1` [Example 20, (R)-5-(6-(4-fluorophenyl)-1H-indole-2-carboxamido)pentane-1,4-diaminium chloride], the “MIC of cefepime against cefepime-exposed P. aeruginosa in the presence of EPI” value ([3]; 6.25 μg/mL of the EPI) is reported as 0.5 µg/mL and the “reduction of the MIC of cefepime against cefepime-exposed P. aeruginosa” value ([3]; 6.25 μg/mL of the EPI) is reported as 8 fold.
With `CO/N=C(\C(=O)N[C@@H]1C(=O)N2C(C(=O)[O-])=C(C[N+]3(C)CCCC3)CS[C@H]12)c1csc(N)n1` [cefepime, reference compound] the MIC ([3]; Pseudomonas aeruginosa, ATCC27853, read-out: MIC of cefepime against P. aeruginosa pre-exposed to cefepime) was 16 µg/mL and the “% Survival (72 hr) Antibiotic Only” value ([2]; mice infected with P. aeruginosa) was 25%.
